Earlier results on five compounds are cited in patent publication US11291673B2, “Topical doxycycline hydrogel with improved long-term stability” (Nanopharmaceutics, Inc., priority 2019, dated 2022).

For orientation: aqueous solubility means how much of the substance goes into solution per volume.

Data set [1] concerns experimental dry eye (EDE) model.
The conditions of data set [2]: compared to aqueous suspensions containing amphoteric dioxytetracycline.
In a further data set the test system is mastitis. Particulars: homogeneous suspension applied to the udder of a cow.

On to `C[C@H]1c2cccc(O)c2C(O)=C2C(=O)[C@]3(O)C(O)=C(C(N)=O)C(=O)[C@H](N(C)C)[C@@H]3[C@@H](O)[C@@H]21` [4-epidoxycycline], for which, in data set [1], the “anti-inflammatory and anti-proteolytic effects” value was “lack of anti-inflammatory and anti-proteolytic effects”.
calcium dioxytetracycline: the stability of suspension result in data set [2] is given as “superior stability”. In addition, in the data set on mastitis, the alleviation of mastitis entry was “rapid and complete alleviation of mastitis”.
For `C[C@H]1c2cccc(O)c2C(=O)C2=C(O)[C@]3(O)C(=O)C(C(N)=O)=C(O)[C@@H](N(C)C)[C@@H]3[C@@H](O)[C@@H]21` [Doxycycline monohydrate], the aqueous solubility (pHs above 6) is less than 800 µg/mL.
For `C[C@@H]1c2cccc(O)c2C(O)=C2C(=O)[C@]3(O)C(O)=C(C(N)=O)C(=O)[C@@H](N(C)C)[C@@H]3[C@@H](O)[C@@H]21` [6-epidoxycycline], the “anti-inflammatory and anti-proteolytic effects” value in data set [1] was “lack of anti-inflammatory and anti-proteolytic effects”.
As to `C[C@H]1c2cccc(O)c2C(=O)C2=C(O)[C@]3(O)C(=O)C(C(N)=O)=C(O)[C@@H](N(C)C)[C@@H]3[C@@H](O)[C@@H]21` [Doxycycline], the solubility result (neutral pH) was “less than 10 mg/ml”.
